Here are results for 1 molecule from paper PMC6478789, “A chemical toolbox for the study of bromodomains and epigenetic signaling” (Nature Communications, 2019).

For assay [1], the target named is GCN5L2 (Homo sapiens, UniProt Q92830). Kind of assay: Histone acetyltransferase (HAT) activity assay. In kind it is biochemical. The conditions noted are these: read-out: HATs Activity (%).
Assay [2] deals with MYST3 (Homo sapiens, UniProt Q92794). Kind of assay: Histone acetyltransferase (HAT) activity assay. The class given is biochemical. Particulars: read-out: HATs Activity (%).
Chain of MYST3 (Q92794 whole entry, species assumed): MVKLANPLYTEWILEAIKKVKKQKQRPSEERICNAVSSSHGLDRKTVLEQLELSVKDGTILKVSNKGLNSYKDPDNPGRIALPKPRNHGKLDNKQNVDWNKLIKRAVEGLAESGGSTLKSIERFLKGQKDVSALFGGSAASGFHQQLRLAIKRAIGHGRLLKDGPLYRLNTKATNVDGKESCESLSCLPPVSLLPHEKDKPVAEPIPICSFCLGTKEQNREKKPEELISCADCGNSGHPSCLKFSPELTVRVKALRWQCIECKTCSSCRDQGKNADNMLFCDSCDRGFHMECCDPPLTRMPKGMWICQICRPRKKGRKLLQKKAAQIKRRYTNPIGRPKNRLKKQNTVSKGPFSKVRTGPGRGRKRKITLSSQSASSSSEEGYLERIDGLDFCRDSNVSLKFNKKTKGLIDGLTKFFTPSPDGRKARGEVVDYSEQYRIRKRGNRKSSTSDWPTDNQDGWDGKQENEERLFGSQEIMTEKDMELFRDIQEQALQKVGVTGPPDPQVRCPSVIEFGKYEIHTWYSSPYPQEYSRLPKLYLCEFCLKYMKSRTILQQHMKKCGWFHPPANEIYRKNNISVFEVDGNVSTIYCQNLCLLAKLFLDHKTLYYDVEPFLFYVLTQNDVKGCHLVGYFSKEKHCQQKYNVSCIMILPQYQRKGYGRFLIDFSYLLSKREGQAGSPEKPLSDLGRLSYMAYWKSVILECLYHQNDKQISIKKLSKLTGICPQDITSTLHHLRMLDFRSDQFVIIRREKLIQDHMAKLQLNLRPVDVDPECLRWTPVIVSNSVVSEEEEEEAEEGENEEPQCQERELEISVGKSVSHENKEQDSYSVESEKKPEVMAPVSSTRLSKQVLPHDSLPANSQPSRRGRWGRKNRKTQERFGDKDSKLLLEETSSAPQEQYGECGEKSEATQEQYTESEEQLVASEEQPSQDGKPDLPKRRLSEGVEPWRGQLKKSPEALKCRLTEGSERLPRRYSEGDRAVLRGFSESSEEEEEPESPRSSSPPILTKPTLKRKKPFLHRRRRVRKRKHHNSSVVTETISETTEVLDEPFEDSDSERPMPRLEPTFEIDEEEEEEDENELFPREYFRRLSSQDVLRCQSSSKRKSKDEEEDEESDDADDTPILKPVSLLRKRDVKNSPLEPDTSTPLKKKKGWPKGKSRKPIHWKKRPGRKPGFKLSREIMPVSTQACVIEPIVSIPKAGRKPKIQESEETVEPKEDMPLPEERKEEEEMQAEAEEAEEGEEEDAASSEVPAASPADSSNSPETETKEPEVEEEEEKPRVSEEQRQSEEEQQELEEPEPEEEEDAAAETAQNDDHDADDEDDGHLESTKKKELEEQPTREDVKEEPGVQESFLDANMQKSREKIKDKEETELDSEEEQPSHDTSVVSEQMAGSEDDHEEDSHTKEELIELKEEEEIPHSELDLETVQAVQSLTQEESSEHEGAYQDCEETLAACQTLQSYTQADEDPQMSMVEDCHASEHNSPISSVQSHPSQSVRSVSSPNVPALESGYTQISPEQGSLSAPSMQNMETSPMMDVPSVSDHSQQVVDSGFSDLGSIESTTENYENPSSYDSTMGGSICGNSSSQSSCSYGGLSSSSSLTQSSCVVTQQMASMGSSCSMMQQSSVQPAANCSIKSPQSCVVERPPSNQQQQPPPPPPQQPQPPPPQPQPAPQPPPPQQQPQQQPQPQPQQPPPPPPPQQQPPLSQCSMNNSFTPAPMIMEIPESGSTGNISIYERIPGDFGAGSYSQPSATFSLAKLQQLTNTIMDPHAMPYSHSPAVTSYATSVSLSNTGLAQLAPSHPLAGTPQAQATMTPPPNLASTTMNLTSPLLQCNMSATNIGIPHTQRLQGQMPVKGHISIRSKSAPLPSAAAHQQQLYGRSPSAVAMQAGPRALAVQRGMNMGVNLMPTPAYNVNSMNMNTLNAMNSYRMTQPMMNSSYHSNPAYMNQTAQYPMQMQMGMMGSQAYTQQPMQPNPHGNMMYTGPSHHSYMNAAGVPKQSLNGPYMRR
The subject of assay [3] is ten TNBC cell lines. Nature of the assay: High-throughput screening of bromodomain inhibitors in TNBC panel (confluency). In kind it is cell-based, human. Particulars: 3 μM, 7 days. How it is done:
Fig. 6 BRD inhibitors leverage metabolic adaptations induced by glucose transporter I (GLUT1) inhibition in TNBC. a BRD inhibitor screening across ten TNBC cell lines. Cells were treated with indicated BRD inhibitors at 3 μM for 7 days. Confluency was measured using an IncuCyte ZOOM live cell imaging device. Data shown are mean ± s.d. of n = 4 independent cell culture grown and treated cells. A two-sided Student’s t test was used to derive the p-values. b SLC2A1 gene expression in the The Cancer Genome Atlas (TCGA) breast datasets. The cohorts were divided into TNBCs (red) and non-TNBCs (blue) according to PAM50 classification. Gene expression is reported as median-centered expression log2 values. The number of patients (n) per group is indicated. P-values were determined using a Wilcoxon's rank-sum test. c Glucose uptake in MDA-MB-436 cells in response to BAY-876 treatment relative to vehicle. MDA-MB-436 cells were treated with dimethyl sulfoxide (DMSO) or 3 µM BAY-876 for 5 days. […]
TNBC cell lines were seeded in sterile, transparent 384-well plates at 500 cells per well in 50 µl media. […] Cell confluency at 7 days was evaluated using an Incucyte ZOOM live cell imaging device (Essen Bioscence) and analyzed with the Incucyte ZOOM (2016A) software based on phase contrast image.

In assay [4] the target is T1, MYST1 (Homo sapiens, UniProt Q9H7Z6).
T1 sequence (Q9H7Z6 1-458): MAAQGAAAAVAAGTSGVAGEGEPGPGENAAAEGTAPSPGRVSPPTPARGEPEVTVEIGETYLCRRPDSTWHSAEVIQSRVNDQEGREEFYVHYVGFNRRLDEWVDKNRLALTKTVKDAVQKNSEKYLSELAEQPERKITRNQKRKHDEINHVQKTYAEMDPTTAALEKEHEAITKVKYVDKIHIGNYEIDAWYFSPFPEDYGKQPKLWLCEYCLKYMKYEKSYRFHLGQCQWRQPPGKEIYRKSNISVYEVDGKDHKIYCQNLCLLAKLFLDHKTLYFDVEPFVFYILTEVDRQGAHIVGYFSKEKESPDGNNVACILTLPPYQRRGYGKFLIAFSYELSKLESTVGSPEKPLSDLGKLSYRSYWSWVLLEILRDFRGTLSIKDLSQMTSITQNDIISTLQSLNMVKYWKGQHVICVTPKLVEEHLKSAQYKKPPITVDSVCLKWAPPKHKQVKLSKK
Kind of assay: Histone acetyltransferase (HAT) activity assay. The class given is biochemical. Particulars: read-out: HATs Activity (%).

The target in assay [5] is EP300 (Homo sapiens, UniProt Q09472). Nature of the assay: Histone acetyltransferase (HAT) activity assay. The class given is biochemical. The conditions noted are these: read-out: HATs Activity (%).
Chain of EP300 (Q09472 whole entry, species assumed): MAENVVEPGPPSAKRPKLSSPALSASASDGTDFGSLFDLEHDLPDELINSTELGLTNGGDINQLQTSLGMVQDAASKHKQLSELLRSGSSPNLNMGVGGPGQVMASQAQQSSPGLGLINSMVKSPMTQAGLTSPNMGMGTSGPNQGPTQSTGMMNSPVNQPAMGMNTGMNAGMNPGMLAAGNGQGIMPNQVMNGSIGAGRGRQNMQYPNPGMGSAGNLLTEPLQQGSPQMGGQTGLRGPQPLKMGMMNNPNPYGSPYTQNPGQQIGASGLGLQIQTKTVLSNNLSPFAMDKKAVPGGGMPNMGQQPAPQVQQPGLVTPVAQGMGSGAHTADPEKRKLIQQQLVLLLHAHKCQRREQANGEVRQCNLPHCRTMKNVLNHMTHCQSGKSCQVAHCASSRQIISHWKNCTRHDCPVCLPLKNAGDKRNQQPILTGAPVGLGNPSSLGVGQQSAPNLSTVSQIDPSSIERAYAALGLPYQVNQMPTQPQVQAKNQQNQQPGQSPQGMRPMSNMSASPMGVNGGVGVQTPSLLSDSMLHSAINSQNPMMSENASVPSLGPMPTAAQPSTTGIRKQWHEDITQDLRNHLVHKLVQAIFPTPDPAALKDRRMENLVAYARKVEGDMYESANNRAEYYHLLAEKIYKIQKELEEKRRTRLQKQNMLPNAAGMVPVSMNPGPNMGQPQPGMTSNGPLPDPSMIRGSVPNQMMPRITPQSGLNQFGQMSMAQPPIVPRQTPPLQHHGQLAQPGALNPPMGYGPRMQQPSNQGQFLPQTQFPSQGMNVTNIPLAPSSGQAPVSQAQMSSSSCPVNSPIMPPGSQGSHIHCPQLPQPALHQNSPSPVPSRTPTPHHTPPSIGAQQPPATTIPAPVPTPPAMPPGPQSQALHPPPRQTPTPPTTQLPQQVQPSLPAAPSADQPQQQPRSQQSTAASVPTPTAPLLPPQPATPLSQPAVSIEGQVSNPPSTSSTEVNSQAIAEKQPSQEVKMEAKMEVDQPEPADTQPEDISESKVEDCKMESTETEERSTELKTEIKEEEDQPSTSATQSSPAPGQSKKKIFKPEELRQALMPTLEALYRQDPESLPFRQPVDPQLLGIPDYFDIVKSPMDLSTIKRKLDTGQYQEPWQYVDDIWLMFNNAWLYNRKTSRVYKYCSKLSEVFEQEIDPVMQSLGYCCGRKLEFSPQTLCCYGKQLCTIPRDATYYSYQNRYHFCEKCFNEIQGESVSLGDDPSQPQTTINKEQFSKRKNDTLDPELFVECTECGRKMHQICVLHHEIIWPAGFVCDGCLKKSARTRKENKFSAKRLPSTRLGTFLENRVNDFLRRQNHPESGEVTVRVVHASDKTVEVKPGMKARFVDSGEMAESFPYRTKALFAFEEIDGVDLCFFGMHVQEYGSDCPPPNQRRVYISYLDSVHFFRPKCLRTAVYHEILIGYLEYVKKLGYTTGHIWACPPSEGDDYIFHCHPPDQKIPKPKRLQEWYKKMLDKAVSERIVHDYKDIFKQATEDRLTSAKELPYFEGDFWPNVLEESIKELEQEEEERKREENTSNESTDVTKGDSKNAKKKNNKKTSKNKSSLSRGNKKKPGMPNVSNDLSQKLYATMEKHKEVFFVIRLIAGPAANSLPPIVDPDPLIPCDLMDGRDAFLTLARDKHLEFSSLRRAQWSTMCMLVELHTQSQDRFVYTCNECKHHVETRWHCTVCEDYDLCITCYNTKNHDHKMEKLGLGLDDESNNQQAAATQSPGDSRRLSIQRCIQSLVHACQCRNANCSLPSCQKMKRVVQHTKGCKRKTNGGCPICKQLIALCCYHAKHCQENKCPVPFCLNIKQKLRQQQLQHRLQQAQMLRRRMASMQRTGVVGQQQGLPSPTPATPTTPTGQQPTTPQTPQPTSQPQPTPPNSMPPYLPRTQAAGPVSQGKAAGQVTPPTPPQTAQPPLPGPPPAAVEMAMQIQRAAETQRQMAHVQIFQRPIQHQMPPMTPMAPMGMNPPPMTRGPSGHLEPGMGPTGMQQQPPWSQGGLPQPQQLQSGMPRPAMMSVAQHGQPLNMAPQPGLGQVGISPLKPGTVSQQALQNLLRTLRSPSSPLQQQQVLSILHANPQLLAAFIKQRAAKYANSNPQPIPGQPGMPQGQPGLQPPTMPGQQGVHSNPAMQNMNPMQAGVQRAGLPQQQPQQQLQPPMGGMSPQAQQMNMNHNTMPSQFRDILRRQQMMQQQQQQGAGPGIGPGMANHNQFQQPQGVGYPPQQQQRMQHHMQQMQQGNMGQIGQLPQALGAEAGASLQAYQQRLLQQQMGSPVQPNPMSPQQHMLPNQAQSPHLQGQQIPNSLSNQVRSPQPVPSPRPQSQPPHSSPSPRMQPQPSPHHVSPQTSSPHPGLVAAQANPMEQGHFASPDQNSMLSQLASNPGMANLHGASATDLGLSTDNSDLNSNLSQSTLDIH
The test system of assay [6] is BT-549 and MDA-MB436 cell lines. Nature of the assay: JQ1 dose-response with or without BAY-876. The conditions noted are these: with or without 3 μM BAY-876, 7 days. In kind it is cell-based, human.
Description: and error bars denote standard deviation from three independent assays. p value computed using a one-way ANOVA test; ****** p<0.001. e) The colony formation of indicated cells with 3μM indicated chemical probes treatment for 14 days. f) MDA-MB436 cells were treated with 3μM indicated chemical probes for 5 days. Cell apoptotic activity was quantified by the fluorescent caspase 3/7 active objects. Graph indicate mean and error bars denote standard deviation from four independent assays. p value computed using one-way ANOVA t test; ****
Graph indicate mean and error bars denote standard deviation from four independent assays. p value computed using a two- stage step-up Benjamini t test i) Dose dependent
Graph indicate mean and error bars denote standard deviation from four independent assay s. p value computed using a two - stage step -up Benjamini t test j) Immunoblot based quantification of H3K14ac abundance using total H3 as a control in MDA-MB-436 cells following control or 3 μM of the indicated chemical probes during a 5-day treatment. Graph indicate mean and error bars denote standard deviation from three independent assays. p value computed using a two-stage step-up Benjamini t test; **p<0.01; *** p<0.001. k) Immunoblot based quantification of H3K14ac abundance using total […]
For assay [7], the target named is T2, HAT1 (Homo sapiens, UniProt O14929).
T2 sequence (O14929 1-419): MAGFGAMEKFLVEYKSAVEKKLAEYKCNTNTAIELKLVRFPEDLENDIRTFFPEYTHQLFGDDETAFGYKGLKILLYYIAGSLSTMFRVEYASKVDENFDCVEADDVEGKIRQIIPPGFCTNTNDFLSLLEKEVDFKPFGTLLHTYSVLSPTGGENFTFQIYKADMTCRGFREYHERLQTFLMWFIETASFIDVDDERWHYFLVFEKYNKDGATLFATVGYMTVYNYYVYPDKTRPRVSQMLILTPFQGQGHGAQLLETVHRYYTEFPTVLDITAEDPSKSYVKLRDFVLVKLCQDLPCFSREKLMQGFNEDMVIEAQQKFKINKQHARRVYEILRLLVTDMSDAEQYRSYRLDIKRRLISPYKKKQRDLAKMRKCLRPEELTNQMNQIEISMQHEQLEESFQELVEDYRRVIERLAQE
Kind of assay: Histone acetyltransferase (HAT) activity assay. In kind it is biochemical. The conditions noted are these: read-out: HATs Activity (%).

Assay [8] deals with three TNBC lines. Kind of assay: Combinatorial screen of BRD inhibitors with or without BAY-876 (confluency). The class given is cell-based, human. The conditions noted are these: 3 μM probe + 3 μM BAY-876. On the procedure: Fig. 6 BRD inhibitors leverage metabolic adaptations induced by glucose transporter I (GLUT1) inhibition in TNBC. a BRD inhibitor screening across ten TNBC cell lines. Cells were treated with indicated BRD inhibitors at 3 μM for 7 days. Confluency was measured using an IncuCyte ZOOM live cell imaging device. Data shown are mean ± s.d. of n = 4 independent cell culture grown and treated cells. A two-sided Student’s t test was used to derive the p-values. b SLC2A1 gene expression in the The Cancer Genome Atlas (TCGA) breast datasets. The cohorts were divided into TNBCs (red) and non-TNBCs (blue) according to PAM50 classification. Gene expression is reported as median-centered expression log2 values. The number of patients (n) per group is indicated. P-values were determined using a Wilcoxon's rank-sum test. c Glucose uptake in MDA-MB-436 cells in response to BAY-876 treatment relative to vehicle. MDA-MB-436 cells were treated with dimethyl sulfoxide (DMSO) or 3 µM BAY-876 for 5 days. Graph indicates mean, error bars denote s.d. from three independent assays and p-value was computed using the Benjamini-Hochberg t test; ***p < 0.001. d Effects of BAY-876 treatment on the intracellular acetyl-CoA level. Graph indicates mean, error bars denote s.d. from three independent assays and p-value was computed using the Benjamini-Hochberg t test; ***p < 0.001. e Effects of BAY-876 treatment on intracellular NAD^+/NADH level. Graph indicates the mean, error bars denote s.d. from three independent assays and p-value computed using the Benjamini-Hochberg t test; **p < 0.01. f Immunoblot analysis of H3 and H4 acetylation in MDA-MB-436 cells before and after BAY-876 treatment. P-value computed using the Benjamini-Hochberg t test; ***p < 0.001. g Cell growth effects of BAY-876 treatment on three representative cell lines. n.s. not significant. h Combinatorial screening of BRD inhibitors with or without 3 μM BAY-876 across ten TNBC cell lines. Cell confluency was obtained from the endpoint Incucyte scanning. (Left) Heatmap of the combinatorial screening results; (Right) Cell confluency after treatment with three potential BRDi candidates at 3 μM in the presence or absence of 3 μM BAY-876 in three representative cell lines. Graph indicates mean, error bars denote s.d. from three independent assays and p-values were computed using the Benjamini-Hochberg t test; **p < 0.01; ***p < 0.001. Raw data images are available in Supplementary Fig. 4
TNBC cell lines were seeded in sterile, transparent 384-well plates at 500 cells per well in 50 µl media. Chemical probes were delivered in dimethyl sulfoxide (DMSO). Cell confluency at 7 days was evaluated using an Incucyte ZOOM live cell imaging device (Essen Bioscence) and analyzed with the Incucyte ZOOM (2016A) software based on phase contrast image.

Assay [9] concerns C2C12 myoblast cells. Kind of assay: Gene-expression analysis (microarray). In kind it is cell-based, mouse. The conditions noted are these: 12 h; 500 nM (JQ1, LP-99), 2 μM (GSK2801, BAZ2-ICR, BSP). On the procedure:
Total RNA was extracted using the PureLink^TM RNA mini kit (Thermo Fisher Scientific, 12183018A) as per the manufacturer’s protocol.
RNA samples were processed for oligonucleotide microarray profiling utilizing the Affymetrix Clariom^TM S Assay HT mouse. Quality controls were carried out in R (v.3.5.1) and Bioconductor[71] (v.3.7) using the arrayQualityMetrics package (v.3.36.0) taking into account array intensity distributions, distance between arrays, and variance mean dependence. Principal component analysis was used to decide which arrays to process together. After quality control, arrays were corrected for background, normalized, and log2-transformed together using the rma function of the oligo package (v.1.44)[73] in R/Bioconductor. Probes with small variance across samples were filtered out using the genefilter (v.1.62) package, employing the nsFilter function and an interquartile range cut-off of 0.28 (or >log(1.2), determined by the midpoint of the shortest interval containing half of the data). This reduced the number of probes of the Clariom^TM S array from 29,129 to 14,538.
Differential expression analysis was conducted using the limma package (v.3.36.2)[74], employing a linear model followed by empirical Bayesian analysis to determine differential expression between not-treated and treated samples.

SMILES strings stand for the structures.

For `Cc1sc2c(c1C)C(c1ccc(Cl)cc1)=NC(CC(=O)OC(C)(C)C)c1nnc(C)n1-2` (centres unmarked) [JQ1], the activity at 1 µM in [1] stood at 104%; in assay [2], 108%; in assay [4], 99%; in assay [5] it was 99%; in assay [7], 98%. The activity at 10 µM in assay [1] was found to be 98%; in [2], 100%; in assay [4], 95%; in assay [5], 102%; in assay [7] it was 103%. In addition, in assay [3], the “anti-proliferative effect (confluency)” value was “strong anti-proliferative effects”. For the same molecule, the “synergy with BAY-876” value in assay [6] was “no significant synergistic effect”. In assay [8], the “combination effect with BAY-876 across the three cell lines” value was “efficacy in only one of the three tested TNBC lines”. Further, the “changes in gene-expression levels” value in [9] was “significant changes in gene-expression levels”.
